Measured values taken from the NIST ThermoML archive (doi:10.1016/j.jct.2019.02.026).
± gives the expanded uncertainty stated by the source.

Conditions: Liquid, Falling or rolling sphere viscometry

CCCCCCCCCCCC(=O)OC [methyl dodecanoate]
Conditions	viscosity [mPa·s]
302.7 K, 30290 kPa	3.6 ± 0.11
302.94 K, 20178 kPa	3.15 ± 0.1
303.04 K, 110 kPa	2.53 ± 0.08
303.04 K, 10512 kPa	2.85 ± 0.09
312.33 K, 30212 kPa	2.87 ± 0.09
312.5 K, 20279 kPa	2.59 ± 0.08
312.61 K, 10214 kPa	2.33 ± 0.07
312.63 K, 134 kPa	2.09 ± 0.07
331.07 K, 29762 kPa	2.04 ± 0.06
331.34 K, 20420 kPa	1.86 ± 0.06
331.51 K, 10354 kPa	1.67 ± 0.05
331.66 K, 132 kPa	1.51 ± 0.05
351.24 K, 29906 kPa	1.53 ± 0.05
351.57 K, 20226 kPa	1.37 ± 0.04
351.74 K, 10090 kPa	1.25 ± 0.04
351.81 K, 235 kPa	1.14 ± 0.04
361.57 K, 30100 kPa	1.35 ± 0.04
361.6 K, 19931 kPa	1.25 ± 0.04
361.75 K, 10141 kPa	1.12 ± 0.04
362.23 K, 2921 kPa	1.05 ± 0.03

CCCCCCCC(=O)OC [methyl octanoate]
Conditions	viscosity [mPa·s]
294.65 K, 30063 kPa	1.81 ± 0.06
294.79 K, 25004 kPa	1.73 ± 0.05
295.08 K, 19995 kPa	1.65 ± 0.05
295.22 K, 14978 kPa	1.58 ± 0.05
295.3 K, 10017 kPa	1.5 ± 0.05
295.48 K, 5004 kPa	1.43 ± 0.05
295.62 K, 102 kPa	1.37 ± 0.04
303.06 K, 29942 kPa	1.58 ± 0.05
303.1 K, 25013 kPa	1.52 ± 0.05
303.11 K, 20009 kPa	1.46 ± 0.05
303.13 K, 5014 kPa	1.27 ± 0.04
303.13 K, 15018 kPa	1.39 ± 0.04
303.14 K, 9987 kPa	1.33 ± 0.04
303.16 K, 98 kPa	1.21 ± 0.04
312.35 K, 29980 kPa	1.37 ± 0.04
312.4 K, 25014 kPa	1.32 ± 0.04
312.44 K, 10045 kPa	1.15 ± 0.04
312.44 K, 20035 kPa	1.27 ± 0.04
312.47 K, 15056 kPa	1.21 ± 0.04
312.49 K, 5022 kPa	1.1 ± 0.03
312.51 K, 101 kPa	1.05 ± 0.03
321.71 K, 29998 kPa	1.21 ± 0.04
321.89 K, 25073 kPa	1.16 ± 0.04
321.97 K, 9991 kPa	1.01 ± 0.03
322.02 K, 5045 kPa	0.97 ± 0.03
322.06 K, 20031 kPa	1.11 ± 0.04
322.09 K, 103 kPa	0.92 ± 0.03
322.11 K, 14992 kPa	1.06 ± 0.03
331.51 K, 29993 kPa	1.08 ± 0.03
331.6 K, 25035 kPa	1.04 ± 0.03
331.61 K, 20038 kPa	1 ± 0.03
331.62 K, 5013 kPa	0.86 ± 0.03
331.72 K, 15022 kPa	0.95 ± 0.03
331.73 K, 10033 kPa	0.91 ± 0.03
331.87 K, 108 kPa	0.82 ± 0.03
341.44 K, 29966 kPa	0.96 ± 0.03
341.56 K, 25026 kPa	0.92 ± 0.03
341.61 K, 15013 kPa	0.84 ± 0.03
341.62 K, 20045 kPa	0.88 ± 0.03
341.63 K, 4984 kPa	0.76 ± 0.02
341.64 K, 10011 kPa	0.8 ± 0.03
341.66 K, 97 kPa	0.72 ± 0.02
351.58 K, 103 kPa	0.64 ± 0.02
351.6 K, 4996 kPa	0.68 ± 0.02
351.62 K, 29959 kPa	0.87 ± 0.03
351.64 K, 10072 kPa	0.72 ± 0.02
351.65 K, 15006 kPa	0.75 ± 0.02
351.7 K, 19996 kPa	0.79 ± 0.03
351.78 K, 25021 kPa	0.83 ± 0.03
361.2 K, 9990 kPa	0.64 ± 0.02
361.23 K, 4990 kPa	0.61 ± 0.02
361.41 K, 19980 kPa	0.72 ± 0.02
361.44 K, 15037 kPa	0.68 ± 0.02
361.45 K, 103 kPa	0.58 ± 0.02
361.59 K, 25011 kPa	0.74 ± 0.02
361.74 K, 29991 kPa	0.78 ± 0.02

CCCCCC(=O)OC [methyl hexanoate]
Conditions	viscosity [mPa·s]
292.99 K, 29973 kPa	1.16 ± 0.04
293.48 K, 25055 kPa	1.11 ± 0.04
293.98 K, 19999 kPa	1.06 ± 0.03
294.34 K, 15024 kPa	1.01 ± 0.03
294.63 K, 9980 kPa	0.96 ± 0.03
294.75 K, 5079 kPa	0.92 ± 0.03
294.86 K, 105 kPa	0.87 ± 0.03
302.79 K, 29963 kPa	1.01 ± 0.03
302.89 K, 24988 kPa	0.97 ± 0.03
302.98 K, 19967 kPa	0.93 ± 0.03
303.01 K, 15014 kPa	0.89 ± 0.03
303.05 K, 10031 kPa	0.86 ± 0.03
303.09 K, 5026 kPa	0.81 ± 0.03
303.12 K, 107 kPa	0.77 ± 0.02
312.57 K, 29951 kPa	0.89 ± 0.03
312.62 K, 24986 kPa	0.85 ± 0.03
312.69 K, 15010 kPa	0.78 ± 0.02
312.69 K, 20046 kPa	0.82 ± 0.03
312.7 K, 4988 kPa	0.71 ± 0.02
312.71 K, 10033 kPa	0.75 ± 0.02
312.74 K, 103 kPa	0.68 ± 0.02
321.96 K, 29975 kPa	0.8 ± 0.03
322.08 K, 9972 kPa	0.67 ± 0.02
322.12 K, 19979 kPa	0.74 ± 0.02
322.14 K, 24972 kPa	0.77 ± 0.02
322.29 K, 98 kPa	0.61 ± 0.02
322.29 K, 5048 kPa	0.64 ± 0.02
322.32 K, 15008 kPa	0.7 ± 0.02
331.74 K, 30010 kPa	0.72 ± 0.02
331.8 K, 25008 kPa	0.69 ± 0.02
331.83 K, 14994 kPa	0.63 ± 0.02
331.89 K, 9984 kPa	0.6 ± 0.02
331.93 K, 20001 kPa	0.66 ± 0.02
341.38 K, 29965 kPa	0.64 ± 0.02
341.39 K, 20015 kPa	0.59 ± 0.02
341.41 K, 25042 kPa	0.62 ± 0.02

CCCCCCCCC(=O)OC [methyl nonanoate]
Conditions	viscosity [mPa·s]
297.15 K, 30034 kPa	2.11 ± 0.07
297.5 K, 24979 kPa	2.01 ± 0.06
297.81 K, 20011 kPa	1.93 ± 0.06
298.08 K, 14977 kPa	1.83 ± 0.06
298.42 K, 9955 kPa	1.73 ± 0.05
298.77 K, 4957 kPa	1.65 ± 0.05
299.19 K, 103 kPa	1.56 ± 0.05
302.91 K, 24994 kPa	1.83 ± 0.06
302.95 K, 30000 kPa	1.91 ± 0.06
303.01 K, 9972 kPa	1.62 ± 0.05
303.08 K, 4961 kPa	1.54 ± 0.05
303.09 K, 15047 kPa	1.68 ± 0.05
303.09 K, 19964 kPa	1.76 ± 0.06
303.1 K, 106 kPa	1.46 ± 0.05
312.06 K, 29961 kPa	1.65 ± 0.05
312.19 K, 25005 kPa	1.57 ± 0.05
312.27 K, 19968 kPa	1.5 ± 0.05
312.28 K, 9996 kPa	1.38 ± 0.04
312.28 K, 14963 kPa	1.43 ± 0.05
312.32 K, 4993 kPa	1.32 ± 0.04
312.38 K, 99 kPa	1.26 ± 0.04
321.26 K, 29949 kPa	1.42 ± 0.04
321.36 K, 24985 kPa	1.36 ± 0.04
321.49 K, 19988 kPa	1.31 ± 0.04
321.56 K, 10020 kPa	1.2 ± 0.04
321.6 K, 4982 kPa	1.14 ± 0.04
321.61 K, 15017 kPa	1.25 ± 0.04
321.64 K, 96 kPa	1.08 ± 0.03
330.93 K, 30013 kPa	1.24 ± 0.04
330.94 K, 19996 kPa	1.14 ± 0.04
331.13 K, 9979 kPa	1.04 ± 0.03
331.13 K, 25032 kPa	1.19 ± 0.04
331.2 K, 14998 kPa	1.09 ± 0.03
331.23 K, 5027 kPa	0.99 ± 0.03
331.26 K, 108 kPa	0.94 ± 0.03
340.91 K, 19959 kPa	0.99 ± 0.03
340.95 K, 25015 kPa	1.04 ± 0.03
340.96 K, 30009 kPa	1.08 ± 0.03
341.03 K, 4962 kPa	0.86 ± 0.03
341.06 K, 10010 kPa	0.91 ± 0.03
341.14 K, 15019 kPa	0.94 ± 0.03
341.21 K, 96 kPa	0.81 ± 0.03
350.73 K, 29961 kPa	0.96 ± 0.03
350.74 K, 24964 kPa	0.92 ± 0.03
350.81 K, 14959 kPa	0.83 ± 0.03
350.86 K, 20020 kPa	0.87 ± 0.03
350.88 K, 9984 kPa	0.79 ± 0.03
350.95 K, 4985 kPa	0.75 ± 0.02
351.04 K, 101 kPa	0.71 ± 0.02
360.61 K, 25005 kPa	0.82 ± 0.03
360.67 K, 29996 kPa	0.85 ± 0.03
360.71 K, 19982 kPa	0.77 ± 0.02
360.82 K, 9960 kPa	0.7 ± 0.02
360.86 K, 4959 kPa	0.66 ± 0.02
360.89 K, 14997 kPa	0.74 ± 0.02
360.96 K, 98 kPa	0.62 ± 0.02

CCCCCCC(=O)OC [methyl heptanoate]
Conditions	viscosity [mPa·s]
292.04 K, 30028 kPa	1.5 ± 0.05
292.56 K, 25040 kPa	1.42 ± 0.04
292.87 K, 19994 kPa	1.35 ± 0.04
293.58 K, 14994 kPa	1.28 ± 0.04
293.85 K, 9970 kPa	1.22 ± 0.04
294.13 K, 4967 kPa	1.17 ± 0.04
294.2 K, 107 kPa	1.11 ± 0.04
302.83 K, 29961 kPa	1.24 ± 0.04
302.93 K, 25017 kPa	1.2 ± 0.04
303.02 K, 19985 kPa	1.15 ± 0.04
303.05 K, 14993 kPa	1.1 ± 0.03
303.08 K, 10026 kPa	1.05 ± 0.03
303.12 K, 5011 kPa	1 ± 0.03
303.15 K, 102 kPa	0.95 ± 0.03
312.49 K, 29986 kPa	1.09 ± 0.03
312.57 K, 25001 kPa	1.05 ± 0.03
312.62 K, 20047 kPa	1.01 ± 0.03
312.65 K, 10009 kPa	0.92 ± 0.03
312.66 K, 15001 kPa	0.97 ± 0.03
312.77 K, 103 kPa	0.83 ± 0.03
312.78 K, 5010 kPa	0.88 ± 0.03
322.09 K, 29925 kPa	0.97 ± 0.03
322.17 K, 19955 kPa	0.89 ± 0.03
322.21 K, 15004 kPa	0.85 ± 0.03
322.23 K, 10018 kPa	0.81 ± 0.03
322.23 K, 25027 kPa	0.93 ± 0.03
322.26 K, 5004 kPa	0.77 ± 0.02
322.33 K, 96 kPa	0.73 ± 0.02
331.56 K, 30001 kPa	0.87 ± 0.03
331.67 K, 19865 kPa	0.8 ± 0.03
331.68 K, 25041 kPa	0.83 ± 0.03
331.74 K, 15035 kPa	0.76 ± 0.02
331.78 K, 5007 kPa	0.69 ± 0.02
331.78 K, 9972 kPa	0.72 ± 0.02
331.85 K, 99 kPa	0.65 ± 0.02
341.48 K, 14961 kPa	0.69 ± 0.02
341.67 K, 96 kPa	0.58 ± 0.02
341.68 K, 10141 kPa	0.65 ± 0.02
341.72 K, 5062 kPa	0.62 ± 0.02
341.73 K, 29980 kPa	0.78 ± 0.02
341.8 K, 25032 kPa	0.75 ± 0.02
341.81 K, 20048 kPa	0.72 ± 0.02
351.26 K, 14966 kPa	0.61 ± 0.02
351.27 K, 10077 kPa	0.58 ± 0.02
351.31 K, 19977 kPa	0.64 ± 0.02
351.46 K, 30010 kPa	0.7 ± 0.02
351.49 K, 24997 kPa	0.67 ± 0.02
361.24 K, 29993 kPa	0.64 ± 0.02
361.37 K, 20002 kPa	0.58 ± 0.02
361.47 K, 25022 kPa	0.61 ± 0.02
